Source: US8343934B2, “Diverse lead compound autotaxin inhibitors” (University of Memphis, priority 2009, dated 2013)
Where “and” joins values, the source holds several entries; their conditions need not be identical. Equal values may be shown once.

Target: T1, ATX (Homo sapiens, UniProt Q13822)
T1 construct: conditioned serum-free medium (CCM) from MDA-MB-435 cells as the source of ATX; endogenous in cells; host or cells: MDA-MB-435 cells (about 10x concentrated conditioned serum-free medium)
Experiment: ATX inhibition assay (FS-3 substrate)
Type: biochemical
Details: for % Response: preliminary screen, FS-3 hydrolysis at one hour, normalized to vehicle control, mean±S.D., same values given at 10 μM in Table 5; for IC50: Calculated IC50 data for the 30 active compounds, FS-3 substrate
Protocol: ATX inhibition was assayed using the substrate FS-3 (Echelon Biosciences, Inc., Salt Lake City, Utah, USA). The FS-3 assay used ˜10 times concentrated conditioned serum-free medium (CCM) from MDA-MB-435 cells as the source of ATX, while CCM comprised one-third of the total volume. The final volume for FS-3 was comprised of the substrate at varying concentrations and 30 μM charcoal-stripped fatty acid free BSA (Sigma Aldrich) in assay buffer (1 mM each CaCl2 and MgCl2, 5 mM KCl, 140 mM NaCl, 50 mM Tris pH 8.0).
All assays were performed in 96-well plates with data read at 1 minute intervals by a Synergy2 system (BioTek, Winooski, Vt.). The fluorescence produced upon the hydrolysis of FS-3 was monitored using an excitation wavelength of 485 nm and an emission wavelength of 528 nm at 37° C. (Ferguson et al., 2006). […] All readings were normalized to vehicle control after subtraction of fluorescence in the absence of CCM. Data are shown as the mean±S.D. of at least three wells.

SMILES	% Response	IC50
CCCCCCCCCCCCCCCCOc1ccc(S(=O)(=O)N/N=c2/sc3ccc(S(=O)(=O)O)cc3n2C)cc1C(=O)O [compound 270069]	97 ± 2.4%	
Nc1cccc(N=Nc2c(S(=O)(=O)[O-])cc3cc(Nc4ccc5c(O)c(N=Nc6cccc(N)c6)c(S(=O)(=O)[O-])cc5c4)ccc3c2O)c1.[Na+].[Na+] [compound 58055]	89 ± 3.9%	
Cc1ccc(Nc2cccc3c2C(=O)c2cccc(Nc4ccc(C)c(S(=O)(=O)O)c4)c2C3=O)cc1S(=O)(=O)O [compound 7804]	96 ± 6.4%	
O=C(COc1ccc(Cl)cc1C(=O)O)NCc1cccc(NC(=O)Nc2ccc(S(=O)(=O)F)cc2)c1 [compound 212086]	95 ± 4.3%	
Nc1ccc(S(=O)(=O)c2ccc(NCNC(CSSCC(NCNc3ccc(S(=O)(=O)c4ccc(N)cc4)cc3)C(=O)O)C(=O)O)cc2)cc1 (stereo not drawn) [compound 39858]	93 ± 4.6%	
COc1cc(N=Nc2c(S(=O)(=O)O)cc3cc(NC(=O)Nc4ccc5c(O)c(N=Nc6ccc7cc(S(=O)(=O)O)ccc7c6)c(S(=O)(=O)O)cc5c4)ccc3c2O)c(C)cc1N [compound 58058]	30 ± 4.9%	13.8 µM
Cc1ccc(C(=O)Nc2ccc(S(=O)(=O)O)c3cc(S(=O)(=O)O)cc(S(=O)(=O)O)c23)cc1NC(=O)c1cccc(NC(=O)Nc2cccc(C(=O)Nc3cc(C(=O)Nc4ccc(S(=O)(=O)O)c5cc(S(=O)(=O)O)cc(S(=O)(=O)O)c45)ccc3C)c2)c1 [compound 34936]	73 ± 9.0% and 83 ± 5.8%	
Nc1c(N=Nc2ccc(S(=O)(=O)O)cc2)cc(S(=O)(=O)O)c2ccc(N=Nc3ccc([N+](=O)[O-])cc3)c(O)c12.[Na+] [compound 47725]	116 ± 4.2%	
CN(C)C1C(=O)C(C(=O)NCNc2cccc(C(=O)O)c2C(=O)O)=C(O)C2(O)C(=O)C3=C(O)c4c(O)cccc4[C@](C)(O)[C@@H]3C[C@H]12 (stereo partly drawn) [compound 43891]	32 ± 9.1%	13.9 µM
Cc1cc(N=Nc2ccc(S(=O)(=O)[O-])cc2)c(N)c(N=Nc2ccc(S(=O)(=O)[O-])cc2)c1N.[Na+].[Na+] [compound 65540]	71 ± 4.4%	
Cc1cccc(N=Nc2c(S(=O)(=O)O)cc3cc(NC(=O)Nc4ccc5c(O)c(N=Nc6ccc7cc(S(=O)(=O)O)ccc7c6)c(S(=O)(=O)O)cc5c4)ccc3c2O)c1.[Na+] [compound 65574]	20 ± 3.7%	12 µM
Cc1ccc(C(=O)Nc2ccc(S(=O)(=O)O)c3cc(S(=O)(=O)O)cc(S(=O)(=O)O)c23)cc1NC(=O)c1cccc(NC(=O)Nc2cccc(C(=O)Nc3cc(C(=O)Nc4ccc(S(=O)(=O)O)c5cc(S(=O)(=O)O)cc(S(=O)(=O)O)c45)ccc3C)c2)c1.Cc1ccc(C)c2c1c(NCCCCCCNc1cc(C)[n+](C)c3c(C)ccc(C)c13)cc(C)[n+]2C [compound 32275]	94 ± 6.5%	
O=S(=O)(O)c1cc(O)c2ccc(Nc3ccc4c(O)cc(S(=O)(=O)O)cc4c3)cc2c1 [compound 1698]	89 ± 5.1%	
Nc1ccc(C(=O)Nc2cccc(C(=O)Nc3ccc4c(O)c(N=Nc5ccc(N=Nc6ccc(S(=O)(=O)[O-])cc6)cc5)c(S(=O)(=O)[O-])cc4c3)c2)cc1.[Na+].[Na+] [compound 47767]	61 ± 3.7%	
Nc1ccc2cc(S(=O)(=O)O)cc(O)c2c1N=Nc1ccc(NC(=O)Nc2ccc(N=Nc3c(N)ccc4cc(S(=O)(=O)O)cc(O)c34)c(S(=O)(=O)O)c2)cc1S(=O)(=O)O [compound 11244]	78 ± 7.0%	
Cc1ccc(N=Nc2c(S(=O)(=O)[O-])cc3cc(NC(=O)Nc4ccc5c(O)c(N=Nc6ccc7cc(S(=O)(=O)[O-])ccc7c6)c(S(=O)(=O)[O-])cc5c4)ccc3c2O)c(C)c1.[Na+].[Na+].[Na+] [compound 65575]	33 ± 3.7%	18.6 µM
O=S(=O)(c1ccc(NC(C(O)C(O)C(O)C(O)CO)S(=O)(=O)O)cc1)c1ccc(NC(C(O)C(O)C(O)C(O)CO)S(=O)(=O)O)cc1 (stereo not drawn) [compound 36701]	98 ± 3.7%	
